Data published in patent publication US20090258030A1, “Materials and Methods for Improving Livestock Productivity” (priority 2006, published 2009).
Structures can show the parent of a compound that is named as a salt.

How the values were obtained:
[1] = Intestine villi length and histology in pigs (Example 4); format: in vivo, swine; settings: 150 g of cysteamine hydrochloride per ton of feed; 30 days
Protocol: 72 piglets were evenly divided into control group and Cysteamine group. The control group was treated with basal diet only, while the Cysteamine group was added with 150 g of cysteamine hydrochloride per ton of feed. The trial was lasted for 30 days.
Immediately after evisceration, tissue samples from the small intestine, large intestine, liver, and pancreas of pigs from each treatment group were collected. The collected samples were placed in properly labeled containers containing 10% buffered neutral formalin solution. The tissue samples were fixed for 78 hours before they were processed for routine histological examination using the paraffin embedding technique (well-known to the skilled artisan).
Sections approximately 5 to 6μ thick were cut from paraffin blocked tissues using Optical 820 Rotary Microtome (Scientific Instruments Division, Buffalo, N.Y.). Some sections were stained with hematoxylin and eosin (H & E), others with Alcian blue. H & E stained sections were used for the examination of the general histology of the intestinal tract while the Alcian blue stained sections were used for goblet cells identification. The stained sections were examined under various magnifications using a light microscope.
The number and length (μm) of villi in the small intestine were counted per microscopic field; the thickness of the tunica muscularis in the small and large intestine were measured using American Optical Micrometer (American Optical Company, Buffalo, N.Y.) calibrated in millimeters. The mucosal folds in the large intestine, the density of intestinal glands (crypts), the appearance of the surface epithelium were all observed. The general histology of the liver and pancreas were examined and compared between Cysteamine treated and non-Cysteamine treated groups. Goblet cell density in the Cysteamine treated and non-Cysteamine treated pigs was compared through visual examination using light microscope.

[2] = Effect of cysteamine hydrochloride on weaning piglets: growth, FCR, diarrhea (Example 2); format: in vivo, swine (D×L×M weanling piglets)
Source text: Total of 100 heads of unhealthy D×L×M weanling piglets (approx. 6.78 kg) were divided into 2 groups—Control group (50 heads) & Cysteamine group (50 heads). The Control group was fed with basal diet. […]

[3] = Cysteamine used to fatten pigs (Example 8); format: in vivo; settings: 190 ppm
[4] = 90 g of cysteamine hydrochloride per ton of feed, after 30 days, vs control
[5] = D × L × M weanling piglets, 300 ppm, 30 days
[6] = D × L × M weanling piglets, 300 ppm, 30 days, 50 head

## NCCS [Cysteamine Hydrochloride, cysteamine hydrochloride]
[1]
  Villi Length, Small Intestines: 2.15 ± 0.09^A
  goblet cells in the small and large intestine vs non-Cysteamine-treated: noticeably larger and highly distended
  number and length of small intestinal villi vs non-Cysteamine treated: more numerous and longer
[2]; [4]
  decrease in feed conversion rate (FCR): 5.56%
  improvement in diarrhea condition: 43.24%
  increase in average daily weight gain (ADG): 12.83%
[2]; 300 ppm, 30 days, vs control
  ADG: Improvement: +48 g/head
  ADG: Improvement (%): 12.83%
  Daily feed consumption: Improvement: +44.2 g/head
  Diarrhea: Improvement (%): −43.24%
  FCR: Improvement: −0.1
  FCR: Improvement (%): −5.56%
  Final Wt.: Improvement: +1.5 kg/head
  Total feed consumption: Improvement: +66.3 kg
  Total final weight: Improvement: +75 kg
  Total weight gain: Improvement: +72.5 kg
  Weight gain: Improvement: +1.45 kg/head
[2]; [5]
  ADG (g/head): 422 g/head
  Daily feed consumption (g/head): 717.4 g/head
  FCR: 1.70
  Final Wt. (kg/head): 19.46 kg/head
  Weight gain (kg/head): 12.66 kg/head
[2]; [6]
  Total feed consumption: 1076.1 kg
  Total final weight: 973 kg
  Total weight gain: 633 kg
[2]; D × L × M weanling piglets, 300 ppm, 30 days, of 50 head
  Diarrhea (head): 21 head
[3]; from 68 kg to market (35 days)
  ADG: 1182 g
  Age: 187 days
  Ave. backfat thickness (cm): 2.1 cm
  Back fat thickness (neck) (cm): 3.0 cm
  Back fat thickness, Hip (cm): 1.4 cm
  Back fat thickness, Middle part (cm): 1.8 cm
  Body weight after slaughtering: 86 kg
  Body weight before slaughtering: 106 kg
  FCR: 2.71
  Feed consumption: 103 kg
  Loin eye diameter (cm): 33.0 cm
[3]; vs control
  ADG: Improvement: 125 g
  ADG: Improvement (%): 11.79%
  Age: Improvement: -5 days
  Age: Improvement (%): −2.60%
  Ave. backfat thickness: Improvement: −0.5 cm
  Ave. backfat thickness: Improvement (%): −18.42%
  Back fat thickness (neck): Improvement: −0.6 cm
  Back fat thickness (neck): Improvement (%): −16.67%
  Back fat thickness, Hip: Improvement: −0.2 cm
  Back fat thickness, Hip: Improvement (%): −12.50%
  Back fat thickness, Middle part: Improvement: −0.6 cm
  Back fat thickness, Middle part: Improvement (%): −25.00%
  Body weight after slaughtering: Improvement: 2 kg
  Body weight after slaughtering: Improvement (%): 2.38%
  Body weight before slaughtering: Improvement: 2 kg
  Body weight before slaughtering: Improvement (%): 1.92%
  FCR: Improvement: −0.26
  FCR: Improvement (%): −8.80%
  Feed consumption: Improvement: -4 kg
  Feed consumption: Improvement (%): −3.74%
  Loin eye diameter: Improvement: 2.5 cm
  Loin eye diameter: Improvement (%): 8.20%
